# Measurements published in ChEMBL document CHEMBL3407464, “Novel 5-HT6 receptor antagonists/D2 receptor partial agonists targeting behavioral and psychological symptoms of dementia” (Eur J Med Chem, 2015).
# How the values were obtained:
# Rattus norvegicus [1] = assay: Anti-depressant-like activity in intraperitoneally dosed 3-months old Wistar rat assessed as increase in saccharin self-administration; format: functional; settings: ip, read-out: MED
# [2] = molecular target: Alpha-2C adrenergic receptor (Homo sapiens) (UniProt P18825); assay: Displacement of [3H]RX-821002 from human adrenergic alpha2C receptor expressed in CHO cells at 1 uM; format: cell-based
# [3] = Half life in human liver microsomes at 1 x 10^-7 M; format: ADME
# Rattus norvegicus [4] = assay: Procognitive effect in intraperitoneally dosed 3-months old Wistar rat assessed as extinction of non-reinforced responding for sweet reward; format: functional; settings: ip, read-out: MED
# [5] = molecular target: 5-hydroxytryptamine receptor 2C (Homo sapiens, UniProt P28335); assay: biochemical
# D(3) dopamine receptor [6] = molecular target: T1, D(3) dopamine receptor (Homo sapiens, UniProt P35462); assay: Displacement of [3H]methylspiperone from human dopamine D3 receptor expressed in CHO cells; format: cell-based
# Rattus norvegicus [7] = assay: Anxiolytic activity in intraperitoneally dosed >18-months old Wistar rat by open-field test; format: functional; settings: ip, read-out: MED
# Histamine H1 receptor [8] = molecular target: T2, Histamine H1 receptor (Homo sapiens, UniProt P35367); assay: biochemical; format: cell-based, HEK293
# [9] = molecular target: Alpha-1A adrenergic receptor (Homo sapiens, UniProt P35348); assay: biochemical
# D(3) dopamine receptor [10] = molecular target: T1, D(3) dopamine receptor; settings: CHO, 1 uM
# [11] = Metabolic stability in human liver microsomes assessed as compound remaining after 30 mins at 1 x 10^-7 M (reference value: 100%); format: ADME; settings: read-out: Stability
# [12] = molecular target: 5-hydroxytryptamine receptor 2C (Homo sapiens) (UniProt P28335); assay: Displacement of [3H]mesulergine from human 5-HT2C receptor expressed in HEK-293 cells at 1 uM; format: cell-based; settings: HEK293
# [13] = molecular target: 5-hydroxytryptamine receptor 1A (Homo sapiens) (UniProt P08908); settings: HEK293, 1 uM
# [14] = molecular target: T3, 5-hydroxytryptamine receptor 6 (Homo sapiens, UniProt P50406); assay: Antagonist activity against human recombinant 5-HT6 receptor expressed in CHOK1 cells assessed as reduction in serotonin-induced increase in intracellular Ca2+ levels by aequorin based radiometric and luminescence plate counting method; format: functional, cell-based; settings: CHO-K1
# D(2) dopamine receptor [15] = molecular target: T4, D(2) dopamine receptor (Homo sapiens, UniProt P14416); assay: Agonist activity at human recombinant dopmaine D2L receptor expressed in CHOK1 cells assessed as intracellular Ca2+ levels by aequorin based radiometric and luminescence plate counting method; format: functional, cell-based, CHO-K1
# [16] = molecular target: D(4) dopamine receptor (Homo sapiens) (UniProt P21917); assay: Displacement of [3H]methylspiperone from human dopamine D4 receptor expressed in CHO cells at 1 uM; format: cell-based
# Histamine H1 receptor [17] = molecular target: T2, Histamine H1 receptor; assay: Displacement of [3H]pyrilamine from human histamine H1 receptor expressed in HEK-293 cells at 1 uM; format: cell-based; settings: HEK293
# D(2) dopamine receptor [18] = molecular target: T4, D(2) dopamine receptor; assay: biochemical
# [19] = molecular target: T5, Muscarinic acetylcholine receptor M1 (Homo sapiens) (UniProt P11229); assay: Displacement of [3H]pirenzepine from human muscarinic M1 receptor expressed in CHO cells at 1 uM; format: cell-based
# T5 sequence (whole entry): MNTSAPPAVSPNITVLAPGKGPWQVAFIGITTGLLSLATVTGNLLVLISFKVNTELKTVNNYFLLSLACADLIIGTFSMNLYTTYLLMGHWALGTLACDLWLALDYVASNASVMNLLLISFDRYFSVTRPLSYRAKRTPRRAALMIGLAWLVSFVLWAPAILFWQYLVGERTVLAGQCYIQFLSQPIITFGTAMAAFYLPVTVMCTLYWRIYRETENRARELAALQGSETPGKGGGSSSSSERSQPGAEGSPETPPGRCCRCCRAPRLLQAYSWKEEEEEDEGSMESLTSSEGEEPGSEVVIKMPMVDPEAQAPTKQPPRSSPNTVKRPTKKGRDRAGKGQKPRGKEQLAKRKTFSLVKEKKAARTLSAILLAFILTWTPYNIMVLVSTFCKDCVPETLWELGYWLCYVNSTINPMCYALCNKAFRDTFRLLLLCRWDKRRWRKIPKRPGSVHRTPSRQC
# Rattus norvegicus [20] = assay: Anxiolytic activity in intraperitoneally dosed 3-months old Wistar rat by open-field test; format: functional; settings: ip, read-out: MED
# [21] = molecular target: T6, 5-hydroxytryptamine receptor 2A (Homo sapiens, UniProt P28223); assay: Displacement of [3H]ketanserin from human 5-HT2A receptor expressed in HEK-293 cells; format: cell-based, HEK293
# [22] = molecular target: T7, 5-hydroxytryptamine receptor 7 (Homo sapiens, UniProt P34969); assay: biochemical
# [23] = Aqueous solubility in simulated intestinal fluid at 2 x 10^-4 M; format: physicochemical
# Rattus norvegicus [24] = assay: Anxiolytic activity in intraperitoneally dosed 3-months old Wistar rat by Vogel's conflict drinking test; format: functional; settings: ip, read-out: MED
# D(1A) dopamine receptor = D(1A) dopamine receptor (Homo sapiens, UniProt P21728); assay: biochemical
# Rattus norvegicus [25] = assay: Induction of reinforcement of lever pressing in intraperitoneally dosed Wistar rat in absence of sweet reward; format: organism-based; settings: in vivo, ip
# [26] = Metabolic stability in human liver microsomes assessed as compound remaining after 60 mins at 1 x 10^-7 M (reference value: 100%); format: ADME; settings: read-out: Stability
# [27] = Intrinsic clearance in human liver microsomes at 1 x 10^-7 M; format: ADME; settings: read-out: CLH
# [28] = Metabolic stability in human liver microsomes assessed as compound remaining after 45 mins at 1 x 10^-7 M (reference value: 100%); format: ADME; settings: read-out: Stability
# [29] = Aqueous solubility in simulated gastric fluid at 2 x 10^-4 M; format: physicochemical
# [30] = molecular target: Voltage-gated inwardly rectifying potassium channel KCNH2 (Homo sapiens, UniProt Q12809)
# [31] = molecular target: T8, Sodium-dependent serotonin transporter (Homo sapiens, UniProt P31645); assay: Displacement of [3H]imipramine from human SERT expressed in CHO cells at 1 uM; format: cell-based
# Rattus norvegicus [32] = assay: Anti-depressant-like activity in intraperitoneally dosed >18-months old Wistar rat by Porsolt's forced swim test; format: functional; settings: ip, read-out: MED
# [33] = Permeability across basolateral to apical side in human Caco2 cells at 1 x 10^-5 M; format: ADME, cell-based; settings: Caco-2, read-out: permeability
# [34] = molecular target: T7, 5-hydroxytryptamine receptor 7; assay: Displacement of [3H]LSD from human 5-HT7 receptor expressed in CHO cells at 1 uM; format: cell-based
# [35] = molecular target: Alpha-1A adrenergic receptor (Homo sapiens) (UniProt P35348); settings: CHO, 1 uM
# [36] = molecular target: Muscarinic acetylcholine receptor M1 (Homo sapiens, UniProt P11229); assay: biochemical; format: cell-based, CHO
# D(3) dopamine receptor [37] = molecular target: T1, D(3) dopamine receptor; assay: Agonist activity at human recombinant dopmaine D3 receptor expressed in CHOK1 cells assessed as effect on cAMP levels; format: functional, cell-based, CHO-K1
# Rattus norvegicus [38] = assay: Anti-depressant-like activity in intraperitoneally dosed 3-months old Wistar rat by Porsolt's forced swim test; format: functional; settings: ip, read-out: MED
# [39] = molecular target: Alpha-2C adrenergic receptor (Homo sapiens, UniProt P18825); assay: biochemical
# D(4) dopamine receptor = D(4) dopamine receptor (Homo sapiens, UniProt P21917); assay: Displacement of [3H]methylspiperone from human dopamine D4 receptor expressed in CHO cells; format: cell-based
# [40] = Aqueous solubility in PBS buffer at pH 7.4 at 2 x 10^-4 M; format: physicochemical
# [41] = molecular target: T6, 5-hydroxytryptamine receptor 2A; settings: HEK293, 1 uM
# [42] = Permeability across apical to basolateral side in human Caco2 cells at 1 x 10^-5 M; format: ADME, cell-based; settings: Caco-2, read-out: permeability
# D(2) dopamine receptor [43] = molecular target: T4, D(2) dopamine receptor; assay: biochemical; remark: listed apart in the source
# [44] = molecular target: T3, 5-hydroxytryptamine receptor 6; assay: biochemical
# [45] = molecular target: T8, Sodium-dependent serotonin transporter; assay: biochemical
# [46] = molecular target: 5-hydroxytryptamine receptor 1A (Homo sapiens, UniProt P08908); assay: biochemical
# [47] = Protein binding in human plasma 1 x 10^-5 M; format: ADME, cell-free; settings: read-out: PPB
# [48] = Metabolic stability in human liver microsomes assessed as compound remaining after 15 mins at 1 x 10^-7 M (reference value: 100%); format: ADME; settings: read-out: Stability
# T1 sequence (P35462 whole entry): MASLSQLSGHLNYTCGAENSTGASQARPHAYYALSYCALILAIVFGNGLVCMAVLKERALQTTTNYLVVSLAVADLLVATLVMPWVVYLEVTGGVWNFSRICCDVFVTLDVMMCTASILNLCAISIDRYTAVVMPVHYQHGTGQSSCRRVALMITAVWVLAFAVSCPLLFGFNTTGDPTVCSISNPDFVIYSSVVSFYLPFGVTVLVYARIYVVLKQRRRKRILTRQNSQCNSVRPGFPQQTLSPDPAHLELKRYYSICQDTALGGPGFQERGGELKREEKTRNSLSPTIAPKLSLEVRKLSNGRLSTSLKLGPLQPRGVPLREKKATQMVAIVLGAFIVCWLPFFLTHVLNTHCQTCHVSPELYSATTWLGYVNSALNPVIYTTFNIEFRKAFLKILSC
# T4 sequence (P14416 whole entry): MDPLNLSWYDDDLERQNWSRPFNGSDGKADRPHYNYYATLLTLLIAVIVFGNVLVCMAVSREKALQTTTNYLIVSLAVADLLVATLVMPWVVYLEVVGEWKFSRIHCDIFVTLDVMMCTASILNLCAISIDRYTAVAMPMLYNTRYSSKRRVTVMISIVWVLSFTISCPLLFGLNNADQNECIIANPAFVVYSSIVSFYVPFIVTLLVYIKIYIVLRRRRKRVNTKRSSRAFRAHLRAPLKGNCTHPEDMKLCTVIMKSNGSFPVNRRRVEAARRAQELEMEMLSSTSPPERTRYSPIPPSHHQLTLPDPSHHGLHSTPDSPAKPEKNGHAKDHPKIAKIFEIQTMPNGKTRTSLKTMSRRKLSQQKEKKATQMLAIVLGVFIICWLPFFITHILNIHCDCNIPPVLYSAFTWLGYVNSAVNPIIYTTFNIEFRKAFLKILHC
# T3 sequence (P50406 whole entry): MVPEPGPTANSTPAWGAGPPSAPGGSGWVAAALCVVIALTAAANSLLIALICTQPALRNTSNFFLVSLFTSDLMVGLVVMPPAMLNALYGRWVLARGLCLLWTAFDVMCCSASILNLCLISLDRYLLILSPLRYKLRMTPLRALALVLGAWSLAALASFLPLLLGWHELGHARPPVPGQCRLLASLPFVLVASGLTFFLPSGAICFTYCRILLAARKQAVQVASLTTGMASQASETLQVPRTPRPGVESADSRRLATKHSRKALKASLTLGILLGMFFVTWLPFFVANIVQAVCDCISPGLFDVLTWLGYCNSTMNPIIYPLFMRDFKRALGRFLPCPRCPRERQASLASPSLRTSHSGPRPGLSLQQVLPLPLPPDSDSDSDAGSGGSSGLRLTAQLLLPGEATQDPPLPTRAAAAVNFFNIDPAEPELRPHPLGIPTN
# T7 sequence (P34969 whole entry): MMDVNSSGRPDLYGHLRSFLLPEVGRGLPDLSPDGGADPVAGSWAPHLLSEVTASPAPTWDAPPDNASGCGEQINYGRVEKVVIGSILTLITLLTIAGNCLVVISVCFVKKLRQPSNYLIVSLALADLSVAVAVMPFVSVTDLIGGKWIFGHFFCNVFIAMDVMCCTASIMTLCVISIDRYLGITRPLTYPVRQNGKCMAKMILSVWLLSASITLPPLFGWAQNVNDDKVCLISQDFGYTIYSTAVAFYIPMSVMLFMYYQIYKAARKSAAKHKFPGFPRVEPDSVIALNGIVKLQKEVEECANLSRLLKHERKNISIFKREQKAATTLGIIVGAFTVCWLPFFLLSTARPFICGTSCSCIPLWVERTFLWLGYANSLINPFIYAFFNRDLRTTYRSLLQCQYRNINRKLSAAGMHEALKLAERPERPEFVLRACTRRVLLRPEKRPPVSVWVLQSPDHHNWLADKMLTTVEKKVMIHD
# T2 sequence (P35367 whole entry): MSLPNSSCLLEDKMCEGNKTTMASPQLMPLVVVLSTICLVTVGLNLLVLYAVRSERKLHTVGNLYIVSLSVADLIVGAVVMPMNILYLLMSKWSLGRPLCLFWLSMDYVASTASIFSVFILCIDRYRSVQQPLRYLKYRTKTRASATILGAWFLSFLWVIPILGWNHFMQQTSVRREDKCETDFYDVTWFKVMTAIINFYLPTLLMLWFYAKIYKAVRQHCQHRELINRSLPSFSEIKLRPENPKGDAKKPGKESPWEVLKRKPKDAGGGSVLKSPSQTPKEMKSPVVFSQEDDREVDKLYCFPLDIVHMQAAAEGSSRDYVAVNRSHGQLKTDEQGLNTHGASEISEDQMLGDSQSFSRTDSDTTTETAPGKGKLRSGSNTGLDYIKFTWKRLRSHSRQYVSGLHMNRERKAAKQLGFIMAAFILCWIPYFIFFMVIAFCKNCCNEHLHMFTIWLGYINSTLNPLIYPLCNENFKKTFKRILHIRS
# T6 sequence (P28223 whole entry): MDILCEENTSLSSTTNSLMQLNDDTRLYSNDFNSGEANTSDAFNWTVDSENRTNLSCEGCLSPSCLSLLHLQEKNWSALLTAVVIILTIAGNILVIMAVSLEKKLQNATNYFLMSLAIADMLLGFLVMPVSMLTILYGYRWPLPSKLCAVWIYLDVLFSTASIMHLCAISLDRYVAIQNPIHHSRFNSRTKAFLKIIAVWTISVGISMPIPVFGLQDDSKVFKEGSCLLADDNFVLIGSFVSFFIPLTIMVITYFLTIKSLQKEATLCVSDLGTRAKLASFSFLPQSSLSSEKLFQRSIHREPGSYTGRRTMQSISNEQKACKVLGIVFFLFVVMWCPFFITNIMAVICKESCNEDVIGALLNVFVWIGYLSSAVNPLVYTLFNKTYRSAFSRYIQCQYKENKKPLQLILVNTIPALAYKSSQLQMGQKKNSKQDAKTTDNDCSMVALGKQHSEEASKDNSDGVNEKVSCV
# Chain of D(4) dopamine receptor (Homo sapiens) (P21917 whole entry): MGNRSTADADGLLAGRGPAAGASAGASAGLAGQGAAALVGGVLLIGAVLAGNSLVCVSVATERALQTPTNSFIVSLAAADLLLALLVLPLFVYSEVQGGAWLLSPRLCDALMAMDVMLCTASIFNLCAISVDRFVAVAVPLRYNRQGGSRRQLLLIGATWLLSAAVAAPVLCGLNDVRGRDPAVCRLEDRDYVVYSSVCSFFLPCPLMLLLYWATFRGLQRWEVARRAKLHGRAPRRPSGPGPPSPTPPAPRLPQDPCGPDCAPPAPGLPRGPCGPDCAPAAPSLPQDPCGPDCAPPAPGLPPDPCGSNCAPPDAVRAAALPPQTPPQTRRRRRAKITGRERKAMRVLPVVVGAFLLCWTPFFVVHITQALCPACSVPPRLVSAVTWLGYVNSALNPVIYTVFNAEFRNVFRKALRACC
# Chain of D(4) dopamine receptor (P21917 whole entry): as above
# Chain of Alpha-1A adrenergic receptor (P35348 whole entry): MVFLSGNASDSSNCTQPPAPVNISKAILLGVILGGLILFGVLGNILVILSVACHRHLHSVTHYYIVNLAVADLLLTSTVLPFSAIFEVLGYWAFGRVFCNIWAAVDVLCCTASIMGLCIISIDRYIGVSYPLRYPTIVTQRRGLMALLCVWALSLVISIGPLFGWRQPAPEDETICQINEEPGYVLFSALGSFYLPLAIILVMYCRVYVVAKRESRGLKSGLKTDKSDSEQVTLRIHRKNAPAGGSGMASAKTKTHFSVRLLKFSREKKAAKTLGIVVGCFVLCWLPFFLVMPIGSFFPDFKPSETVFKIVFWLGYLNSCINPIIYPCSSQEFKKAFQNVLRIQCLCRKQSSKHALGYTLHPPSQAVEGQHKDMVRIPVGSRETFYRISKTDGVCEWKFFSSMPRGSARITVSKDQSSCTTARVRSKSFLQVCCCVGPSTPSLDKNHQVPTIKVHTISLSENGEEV
# Chain of Alpha-1A adrenergic receptor (Homo sapiens) (P35348 whole entry): as above
# Chain of 5-hydroxytryptamine receptor 2C (P28335 whole entry): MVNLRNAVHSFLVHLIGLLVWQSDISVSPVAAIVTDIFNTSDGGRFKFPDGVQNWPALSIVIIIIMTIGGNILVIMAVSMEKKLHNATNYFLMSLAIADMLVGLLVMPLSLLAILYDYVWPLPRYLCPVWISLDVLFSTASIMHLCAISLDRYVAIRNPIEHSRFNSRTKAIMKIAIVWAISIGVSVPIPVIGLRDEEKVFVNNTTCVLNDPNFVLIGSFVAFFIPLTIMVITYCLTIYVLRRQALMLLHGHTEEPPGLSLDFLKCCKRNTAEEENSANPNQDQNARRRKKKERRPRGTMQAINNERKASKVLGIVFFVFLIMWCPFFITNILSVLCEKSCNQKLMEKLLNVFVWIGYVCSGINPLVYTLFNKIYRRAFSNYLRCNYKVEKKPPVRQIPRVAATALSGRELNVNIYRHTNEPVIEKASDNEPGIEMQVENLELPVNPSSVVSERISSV
# Chain of 5-hydroxytryptamine receptor 2C (Homo sapiens) (P28335 whole entry): as above
# Chain of D(1A) dopamine receptor (P21728 whole entry): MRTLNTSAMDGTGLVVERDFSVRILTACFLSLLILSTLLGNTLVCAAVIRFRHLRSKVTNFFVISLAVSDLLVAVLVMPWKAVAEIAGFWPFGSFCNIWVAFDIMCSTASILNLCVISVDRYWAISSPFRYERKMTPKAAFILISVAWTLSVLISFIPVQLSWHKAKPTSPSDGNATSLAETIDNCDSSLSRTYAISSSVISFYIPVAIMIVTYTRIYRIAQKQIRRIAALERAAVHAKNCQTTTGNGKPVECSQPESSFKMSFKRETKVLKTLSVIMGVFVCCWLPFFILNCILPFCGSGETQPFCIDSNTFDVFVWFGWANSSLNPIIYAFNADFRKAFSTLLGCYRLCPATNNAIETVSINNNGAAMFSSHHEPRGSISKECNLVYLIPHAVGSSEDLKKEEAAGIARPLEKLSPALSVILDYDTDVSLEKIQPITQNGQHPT
structure (smiles),measurement,setting,value
NC(=O)c1ccccc1OCCCN1CCN(c2cccc3c2ccn3S(=O)(=O)c2ccccc2)CC1,minimal effective dose,Rattus norvegicus [1],1 mg/kg
same,inhibition,[2],> 50%
same,half-life at 0.1 µM,[3],> 1 h
same,minimal effective dose,Rattus norvegicus [4],3 mg/kg
same,Ki,[5],> 1 µM
same,Ki,D(3) dopamine receptor [6],0.0001 µM
same,minimal effective dose,Rattus norvegicus [7],3 mg/kg
same,Ki,Histamine H1 receptor [8],0.16 µM
same,Ki,[9],0.0169 µM
same,inhibition,D(3) dopamine receptor [10],> 90%
same,"remaining at 0.5 h, 0.1 µM",[11],79.3%
same,inhibition,[12],< 40%
same,inhibition,[13],> 90%
same,Kb,[14],0.0018 µM
same,EC50,D(2) dopamine receptor [15],0.054 µM
same,inhibition,[16],> 90%
same,inhibition,Histamine H1 receptor [17],> 50%
same,Ki,D(2) dopamine receptor [18],0.0063 µM
same,inhibition,[19],< 40%
same,minimal effective dose,Rattus norvegicus [20],1 mg/kg
same,Ki,[21],0.029 µM
same,Ki,[22],0.18 µM
same,solubility at 200 µM,[23],97.3 µM
same,minimal effective dose,Rattus norvegicus [24],1 mg/kg
same,Ki,D(1A) dopamine receptor,> 1 µM
same,Activity,Rattus norvegicus [25],Non-toxic
same,"remaining at 1 h, 0.1 µM",[26],57.9%
same,microsomal CLint at 0.1 µM,[27],< 116 µL/min/mg
same,"remaining at 0.75 h, 0.1 µM",[28],68%
same,solubility at 200 µM,[29],200 µM
same,IC50,[30],6.2 µM
same,inhibition,[31],< 40%
same,minimal effective dose,Rattus norvegicus [32],1 mg/kg
same,Papp B→A at 10 µM,[33],3 nm/s
same,inhibition,[34],> 50%
same,inhibition,[35],> 50%
same,Ki,[36],> 1 µM
same,EC50,D(3) dopamine receptor [37],> 1 µM
same,minimal effective dose,Rattus norvegicus [38],1 mg/kg
same,Ki,[39],0.19 µM
same,Ki,D(4) dopamine receptor,0.0071 µM
same,solubility at 200 µM,[40],7 µM
same,inhibition,[41],> 90%
same,Papp A→B at 10 µM,[42],7 nm/s
same,Ki,D(2) dopamine receptor [43],0.0063 µM
same,Ki,[44],0.001 µM
same,Ki,[45],> 1 µM
same,Ki,[46],0.0067 µM
same,fraction unbound at 10 µM,[47],< 0.01
same,"remaining at 0.25 h, 0.1 µM",[48],90.6%
